Each structure is given as a SMILES string.

Sequence of EGFR (P00533 whole entry, looked up): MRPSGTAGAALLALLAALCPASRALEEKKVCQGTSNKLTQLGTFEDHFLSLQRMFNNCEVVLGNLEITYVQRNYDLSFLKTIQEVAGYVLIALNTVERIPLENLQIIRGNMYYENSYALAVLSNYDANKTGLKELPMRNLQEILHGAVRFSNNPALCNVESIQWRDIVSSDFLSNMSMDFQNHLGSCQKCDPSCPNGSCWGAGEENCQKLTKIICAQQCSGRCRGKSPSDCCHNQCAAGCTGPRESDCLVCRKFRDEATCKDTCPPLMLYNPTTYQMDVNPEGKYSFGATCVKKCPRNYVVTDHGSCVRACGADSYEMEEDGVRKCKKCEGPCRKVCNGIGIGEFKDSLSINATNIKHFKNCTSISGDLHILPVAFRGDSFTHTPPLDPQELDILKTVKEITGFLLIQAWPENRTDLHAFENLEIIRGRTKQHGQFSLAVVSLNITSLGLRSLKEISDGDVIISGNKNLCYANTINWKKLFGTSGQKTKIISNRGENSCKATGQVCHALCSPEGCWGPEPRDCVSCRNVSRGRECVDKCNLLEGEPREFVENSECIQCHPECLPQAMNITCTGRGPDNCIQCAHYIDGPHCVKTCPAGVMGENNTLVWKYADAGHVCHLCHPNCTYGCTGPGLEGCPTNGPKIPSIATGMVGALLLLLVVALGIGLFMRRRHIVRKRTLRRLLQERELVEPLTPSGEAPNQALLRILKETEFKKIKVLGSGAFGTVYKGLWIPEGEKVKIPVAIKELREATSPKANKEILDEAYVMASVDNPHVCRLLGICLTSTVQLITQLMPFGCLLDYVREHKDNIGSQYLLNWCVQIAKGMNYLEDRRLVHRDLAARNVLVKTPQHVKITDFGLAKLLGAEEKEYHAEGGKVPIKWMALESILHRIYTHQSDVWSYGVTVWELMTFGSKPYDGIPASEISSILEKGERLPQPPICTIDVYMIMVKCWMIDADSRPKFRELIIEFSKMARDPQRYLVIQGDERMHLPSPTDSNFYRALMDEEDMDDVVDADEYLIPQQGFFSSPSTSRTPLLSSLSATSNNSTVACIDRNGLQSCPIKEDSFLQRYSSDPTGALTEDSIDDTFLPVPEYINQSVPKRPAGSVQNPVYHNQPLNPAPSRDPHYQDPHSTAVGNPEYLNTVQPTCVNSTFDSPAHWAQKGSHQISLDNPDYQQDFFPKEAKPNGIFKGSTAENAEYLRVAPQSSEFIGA

The assay addresses EGFR (UniProt P00533).
`COc1cc2c(Nc3ccc(F)c(Cl)c3F)ncnc2cc1OC[C@@H]1CN2CCOC[C@H]2CO1` gave an IC50 of less than 50 nM. `COc1cc2c(Nc3ccc(Cl)c(Cl)c3)ncnc2cc1OCC1CN(S(C)(=O)=O)CCCO1` (stereo unspecified) came in with a concentration for half-maximal inhibition (IC50) of less than 50 nM.

`COc1cc2c(Nc3cc(F)c(Oc4ccc(Cl)cc4)c(F)c3)ncnc2cc1O[C@@H]1CO[C@@H]2[C@H]1OC[C@H]2F` registered an IC50 of less than 50 nM.

Regarding `COc1cc2c(Nc3ccc(Br)c(Cl)c3)ncnc2cc1O[C@@H]1CCOC1`, the IC50 is less than 50 nM. Then `COc1cc2c(Nc3cc(Cl)c(Cl)cc3F)ncnc2cc1OC[C@@H]1CO[C@H]2[C@@H]1OC[C@@H]2O`, with less than 50 nM.

`COc1cc2c(Nc3cc(Cl)c(Br)cc3F)ncnc2cc1OCC1CN(C)CCO1` (stereo unspecified) gave an IC50 of less than 50 nM. Then `COc1cc2c(Nc3ccc(Cl)cc3)ncnc2cc1O[C@@H]1CO[C@@H]2[C@H]1OC[C@H]2F`, with less than 50 nM; and `COc1cc2c(Nc3ccc(Br)c(Cl)c3Cl)ncnc2cc1OC[C@H]1CN2CCOC[C@H]2CO1`, with less than 50 nM. Then `COC(=O)CCC(=O)N1CCOC(COc2cc3ncnc(Nc4ccc(Cl)c(Cl)c4)c3cc2OC)C1` (stereo unspecified), with less than 50 nM; and `COc1cc2c(Nc3cc(Cl)c(Cl)c(Cl)c3)ncnc2cc1OCC1CN(C)CCO1` (stereo unspecified), with less than 50 nM.

With `COc1cc2c(Nc3ccc(Cl)c(Cl)c3F)ncnc2cc1OC[C@@H]1CN2CCCC[C@@H]2C(=O)N1`, the IC50 is less than 50 nM. For `C=CCCCN1CCOC(COc2cc3ncnc(Nc4ccc(Cl)c(Cl)c4)c3cc2OC)C1` (stereo unspecified), the IC50 is less than 50 nM.

For `COc1cc2c(Nc3ccc(C)c(Br)c3)ncnc2cc1OCC1CN(C)CCO1` (stereo unspecified), the IC50 was less than 50 nM.

For the molecule `COc1cc2c(Nc3ccc(Br)cc3)ncnc2cc1O[C@@H]1CO[C@@H]2[C@H]1OC[C@H]2F`, the IC50 is less than 50 nM.

With `COc1cc2c(Nc3ccc(Br)c(Cl)c3Cl)ncnc2cc1OC[C@@H]1CO[C@H]2[C@@H]1OC[C@@H]2O`, the IC50 was less than 50 nM. In turn, `COc1cc2c(Nc3ccc(Cl)c(Cl)c3)ncnc2cc1OCCN1CCCCC1` displayed an IC50 of less than 50 nM. `COc1cc2c(Nc3ccccc3Br)ncnc2cc1O[C@@H]1CO[C@@H]2[C@H]1OC[C@H]2F` showed an IC50 of less than 50 nM. Consider `COc1cc2c(Nc3ccc(Cl)c(Cl)c3)ncnc2cc1OC[C@H]1C[C@@H]2CN(C)C[C@@H]2C1`, for which the IC50 was less than 50 nM. The figure for `COc1cc2c(Nc3cc(Cl)c(Br)cc3F)ncnc2cc1O[C@H]1CO[C@H]2[C@@H]1OC[C@@H]2OC` is less than 50 nM; for `COc1cc2c(Nc3cccc(Cl)c3F)ncnc2cc1O[C@@H]1CO[C@@H]2[C@H]1OC[C@H]2F` it is less than 50 nM. With `COc1cc2c(Nc3ccc(Br)c(Cl)c3F)ncnc2cc1OC[C@@H]1CN2CCC[C@H]2C(=O)N1`, the IC50 is less than 50 nM. Turning to `COc1cc2c(Nc3ccc(Br)cc3Cl)ncnc2cc1OCC1CN(C)CCO1` (stereo unspecified), the IC50 was less than 50 nM. Molecule `COc1cc2c(Nc3ccc(F)c(Cl)c3F)ncnc2cc1OCC1CO[C@@H]2[C@@H](OC)CO[C@H]12` (stereo partly specified) yielded an IC50 of less than 50 nM.

As to `COc1cc2c(Nc3ccc(Cl)c(Cl)c3)ncnc2cc1OCC1CN(CC=C(C)C)CCO1` (stereo unspecified), the IC50 was less than 50 nM. Then `COc1cc2c(Nc3ccc(Cl)c(Cl)c3)ncnc2cc1OCc1noc(OCc2ccccc2)n1`, with less than 50 nM; and `COc1cc2c(Nc3ccc(C)c(Br)c3)ncnc2cc1O[C@@H]1CO[C@@H]2[C@H]1OC[C@H]2F`, with less than 50 nM. Regarding `COc1cc2c(Nc3ccc(N4CCN(C)CC4)c(F)c3)ncnc2cc1O[C@H]1CO[C@@H]2[C@H]1OC[C@@H]2F`, the IC50 is less than 50 nM.

Take `COc1cc(OC)c(Nc2ncnc3cc(O[C@@H]4CO[C@@H]5[C@H]4OC[C@H]5F)c(OC)cc23)cc1Cl`: the IC50 is less than 50 nM. The figure for `COc1cc2c(Nc3ccc(Cl)c(Cl)c3)ncnc2cc1OCc1nc2c(s1)CN(C)CC2` is less than 50 nM; for `CCN1CCC[C@H]1c1noc(COc2cc3ncnc(Nc4ccc(Cl)c(Cl)c4)c3cc2OC)n1` it is less than 50 nM; for `COc1cc2c(Nc3cc(Cl)c(Br)cc3F)ncnc2cc1O[C@@H]1CO[C@@H]2[C@H]1OC[C@H]2F` it is less than 50 nM. Then `COc1cc2c(Nc3ccc(Cl)c(Cl)c3)ncnc2cc1OCCC1OCCO1`, with less than 50 nM; and `COc1cc2c(Nc3ccc(Cl)c(Cl)c3)ncnc2cc1OC[C@H]1CN2CCC[C@H]2CO1`, with less than 50 nM.

`COc1cc2c(Nc3ccc(Cl)c(Cl)c3)ncnc2cc1OCCN1CCCC1` yielded an IC50 of less than 50 nM. The molecule `COc1cc2c(Nc3ccc(C(F)(F)F)cc3Br)ncnc2cc1O[C@@H]1CO[C@@H]2[C@H]1OC[C@H]2F` displayed a half-maximal inhibitory concentration (IC50) of less than 50 nM.

With `COc1cc2c(Nc3ccc(Cl)c(Cl)c3)ncnc2cc1OCC1CCCCC1`, the 50% inhibitory concentration (IC50) was less than 50 nM. The molecule `COc1cc2c(Nc3cc(Cl)ccc3Cl)ncnc2cc1O[C@@H]1CO[C@@H]2[C@H]1OC[C@H]2F` registered an IC50 of less than 50 nM. The figure for `COc1cc2c(Nc3ccc(Cl)c(Cl)c3)ncnc2cc1OCC1CN(C(C)=O)CCCO1` (stereo unspecified) is less than 50 nM. Then `COc1cc2c(Nc3ccc(Cl)c(Cl)c3)ncnc2cc1OCCC1CNC(C)(C)CO1` (stereo unspecified), with less than 50 nM; and `COc1cc2c(Nc3ccc(Cl)c(Cl)c3)ncnc2cc1OCCC1CN(C)C(C)(C)CO1` (stereo unspecified), with less than 50 nM; and `CCC1(C)CN(C)CC(COc2cc3ncnc(Nc4ccc(Cl)c(Cl)c4)c3cc2OC)O1` (stereo unspecified), with less than 50 nM.

In turn, `COc1cc2c(Nc3ccc(Cl)c(Cl)c3)ncnc2cc1OCC1CN(Cc2ccccn2)CCO1` (stereo unspecified) had an IC50 of less than 50 nM. For `COc1cc2c(Nc3ccc(Br)c(Cl)c3F)ncnc2cc1OCC1CO[C@@H]2[C@@H](OC)CO[C@H]12` (stereo partly specified), the IC50 is less than 50 nM. In turn, `COc1cc2c(Nc3ccc(Br)c(Cl)c3)ncnc2cc1O[C@H]1CO[C@@H]2[C@H]1OC[C@@H]2NC(C)=O` had an IC50 of less than 50 nM.

Regarding `COc1cc2c(Nc3ccc(Cl)c(Cl)c3F)ncnc2cc1OC[C@H]1C[C@@H]2CN(C)C[C@@H]2C1`, the IC50 was less than 50 nM. The figure for `COc1cc2c(Nc3ccc(Br)c(Cl)c3F)ncnc2cc1OC[C@@H]1CN(C)CC(=O)N1` is less than 50 nM.

In the case of `COc1cc2c(Nc3ccc(F)c(Cl)c3)ncnc2cc1OCC1CN(C)CCO1` (stereo unspecified), the IC50 is less than 50 nM. Then `COc1cc2c(Nc3cc(Cl)c(Cl)cc3F)ncnc2cc1O[C@H]1CO[C@H]2[C@@H]1OC[C@@H]2OC`, with less than 50 nM; and `COc1cc2c(Nc3ccc(Cl)c(Cl)c3)ncnc2cc1OCC1CN(C(=O)c2c(F)ccc(F)c2F)CCO1` (stereo unspecified), with less than 50 nM. Then `COc1cc2c(Nc3ccc(Cl)c(Cl)c3)ncnc2cc1OCCC1CC2CCC(C1)N2C` (stereo unspecified), with less than 50 nM; and `COc1cc2c(Nc3ccc(Cl)c(Cl)c3)ncnc2cc1OCC1CN(C(C)=O)CCO1` (stereo unspecified), with less than 50 nM; and `COc1cc2c(Nc3ccc(Br)c(Cl)c3)ncnc2cc1O[C@H]1COC[C@H]1OC`, with less than 50 nM. Then `COc1cc2c(Nc3ccc(Br)c(Cl)c3)ncnc2cc1O[C@H]1CO[C@@H]2[C@H]1OC[C@@H]2NS(C)(=O)=O`, with less than 50 nM; and `COc1cc2c(Nc3ccc(Cl)c(Cl)c3F)ncnc2cc1OC[C@@H]1CN(C)CC(=O)N1C`, with less than 50 nM; and `COc1cc2c(Nc3ccc(Cl)c(Cl)c3)ncnc2cc1OCC1CN(C(C)C)CCCO1` (stereo unspecified), with less than 50 nM. In the case of `CCN(CC)[C@H]1CO[C@@H]2[C@H]1OC[C@@H]2Oc1cc2ncnc(Nc3ccc(Br)c(Cl)c3)c2cc1OC`, the IC50 is less than 50 nM.

In turn, `COc1cc2c(Nc3ccc(Cl)c(Cl)c3)ncnc2cc1OCC1CN(CCOCCO)CCO1` (stereo unspecified) showed an IC50 of less than 50 nM. With `COc1cc2c(Nc3ccc(Cl)c(Cl)c3F)ncnc2cc1OC[C@@H]1CN2CCOC[C@H]2CO1`, the IC50 was less than 50 nM. In turn, `CCCN1CCCOC(COc2cc3ncnc(Nc4ccc(Cl)c(Cl)c4)c3cc2OC)C1` (stereo unspecified) registered an IC50 of 50 to 1000 nM.

`COc1cc2c(Nc3ccc(F)cc3Br)ncnc2cc1O[C@@H]1CO[C@@H]2[C@H]1OC[C@H]2F` gave an IC50 of less than 50 nM. The molecule `COc1cc2c(Nc3ccc(Cl)c(Cl)c3)ncnc2cc1OCC1CN(CCCC#N)CCO1` (stereo unspecified) returned an IC50 of less than 50 nM. Then `COc1cc2c(Nc3ccc(Cl)c(Cl)c3)ncnc2cc1OCC1CN(C(=O)c2ccc3c(c2)OCO3)CCO1` (stereo unspecified), with less than 50 nM. The figure for `COc1cc2c(Nc3ccc(Cl)c(Cl)c3)ncnc2cc1OCc1nc(-c2cccnc2)cs1` is less than 50 nM; for `C=CCCCCCCN1CCOC(COc2cc3ncnc(Nc4ccc(Cl)c(Cl)c4)c3cc2OC)C1` (stereo unspecified) it is less than 50 nM.

Take `COc1cc2c(Nc3ccc(Cl)c(Cl)c3)ncnc2cc1OCc1nc(N2CCNCC2)no1`: the IC50 is less than 50 nM. Then `COc1cc2c(Nc3ccc(Cl)cc3Cl)ncnc2cc1O[C@@H]1CO[C@@H]2[C@H]1OC[C@H]2F`, with less than 50 nM; and `COc1cc2c(Nc3cccc(Cl)c3F)ncnc2cc1O[C@H]1CO[C@H]2[C@@H]1OC[C@@H]2OC`, with less than 50 nM; and `COc1cc2c(Nc3ccc(Cl)c(Cl)c3)ncnc2cc1OCc1csc(C2CCCN(C)C2)n1` (stereo unspecified), with less than 50 nM. `CCCCS(=O)(=O)N1CCOC(COc2cc3ncnc(Nc4ccc(Cl)c(Cl)c4)c3cc2OC)C1` (stereo unspecified) returned an IC50 of less than 50 nM. The figure for `CCN1CCCCC1c1nc(COc2cc3ncnc(Nc4ccc(Cl)c(Cl)c4)c3cc2OC)cs1` (stereo unspecified) is less than 50 nM; for `COc1cc2c(Nc3ccc(Cl)c(Cl)c3)ncnc2cc1OCC1CN(CCC2OCCO2)CCO1` (stereo unspecified) it is less than 50 nM. The figure for `COc1cc2c(Nc3cc(Cl)c(Br)cc3F)ncnc2cc1OCC1CN(C)C(C)(C)CO1` (stereo unspecified) is less than 50 nM; for `COc1cc2c(Nc3ccc(Cl)c(Br)c3)ncnc2cc1OCC1CN(C)CCO1` (stereo unspecified) it is less than 50 nM.

For the molecule `COc1cc2c(Nc3ccc(Cl)c(Cl)c3)ncnc2cc1OCC1CN(CCCCCCO)CCO1` (stereo unspecified), the half-inhibitory concentration (IC50) was less than 50 nM. Then `COc1cc2c(Nc3cc(Cl)c(Br)cc3F)ncnc2cc1OC[C@@H]1CN2CCC[C@H]2CO1`, with less than 50 nM; and `COc1cc2c(Nc3ccc(Cl)c(Cl)c3)ncnc2cc1OCC1CN(S(=O)(=O)Cc2ccccc2)CCO1` (stereo unspecified), with less than 50 nM; and `COc1cc2c(Nc3cc(Cl)c(Cl)cc3F)ncnc2cc1O[C@@H]1CO[C@@H]2[C@H]1OC[C@H]2F`, with less than 50 nM. Then `COc1cc2c(Nc3ccc(Cl)c(Cl)c3)ncnc2cc1OCC1CN(CC(N)=O)CCO1` (stereo unspecified), with less than 50 nM; and `COc1cc2c(Nc3ccc(Br)c(Cl)c3)ncnc2cc1O[C@H]1CO[C@H]2[C@@H]1OC[C@@H]2OC(F)F`, with less than 50 nM. Consider `COc1cc2c(Nc3ccc(Br)c(Cl)c3Cl)ncnc2cc1OC[C@@H]1CN2CCC[C@H]2CO1`, for which the IC50 is less than 50 nM. Then `COc1cc2c(Nc3ccc(Cl)c(Cl)c3)ncnc2cc1OCC1CN(C/C=C/Br)CCO1` (stereo unspecified), with less than 50 nM.

The values are drawn from the Kinase Knowledgebase extract (Sharma et al. 2016).
